Read-outs that look alike come from different tables or passages of the source. One block for each compound: values may come before it.
Columns and labels:
[1] = Indian origin, rhesus monkey, in vivo, po
[2] = parameters: method as in Ibarra et al. Eur J Pharm Sci. 2012;46(5):516–21; details: human historical data, LPV-RTV; ref Ibarra et al. Eur J Pharm Sci. 2012;46(5):516–21; cited from earlier work
in vivo = details: Indian origin, rhesus monkey, po; for Cmax: 50 mg/kg
[3] = Pharmacokinetic study, single dose by gavage, plasma HPLC-MS/MS
[4] = human historical data, cited from earlier work
[5] = tested on: P. knowlesi asexual blood stage parasites; parameters: method as in PMID 21486958; details: rhesus macaques; cited from earlier work
[6] = rhesus JMF, dosing regimen LPV-RTV+TMP-SMX, sedated
[7] = rhesus JRH, dosing regimen LPV-RTV+TMP-SMX, awake
[8] = rhesus LK8A, dosing regimen LPV-RTV alone, sedated
[9] = TMP-SMX, ref Patel et al. 1980, Dudley et al. 1984

Cmax [1]: 10900 ng/mL
AUC(0-t) (in vivo; in vivo): 171000 ng·h/mL
Cmax (in vivo; in vivo): 10300 ng/mL
SMILES: Cc1cccc(C)c1OCC(=O)N[C@@H](Cc1ccccc1)[C@@H](O)C[C@H](Cc1ccccc1)NC(=O)[C@H](C(C)C)N1CCCNC1=O [Lopinavir]
AUC0–24 [2]: 95000 ng·h/mL
Cmax [2]: 7060 ng/mL
T1/2 [2]: 5.2 h
Tmax [2]: 3 to 6 h

Cmax (in vivo; plasma): 3600 ng/mL
AUC0–24 [3, 7]: 23200 ng·h/mL
Tmax [3, 7]: 6.0 h
SMILES: CC(C)c1nc(CN(C)C(=O)N[C@H](C(=O)N[C@@H](Cc2ccccc2)C[C@H](O)[C@H](Cc2ccccc2)NC(=O)OCc2cncs2)C(C)C)cs1 [Ritonavir]
AUC0–24 [2]: 4310 ng·h/mL
T1/2 [2]: 5.12 h
Tmax [2]: 3 to 6 h
AUC0–24 [3, 6]: 11100 ng·h/mL
Tmax [3, 6]: 24.0 h
AUC0–24 [3, 8]: 37800 ng·h/mL
Tmax [3, 8]: 8.0 h

SMILES: COc1cc(Cc2cnc(N)nc2N)cc(OC)c1OC [Trimethoprim]
Cmax [1]: 130 ng/mL
AUC(0-t) (in vivo; in vivo): 1730 ng·h/mL
T1/2 [4, 9]: 8 to 10 h
Tmax [4, 9]: 1 to 4 h
AUC0–24 ([4]; dose 5 mg/kg trimethoprim and 25 mg/kg sulfamethoxazole iv, ref Dudley et al. Antimicrob Agents Chemother 1984;26:811–814): 32.6 ^2 µg*hr/mL
Cmax ([4]; dose 160 mg trimethoprim and 800 mg sulfamethoxazole, ref Patel et al. Clin Pharmacokinet 1980;5:405–423): 1–2 ^1 µg/mL

SMILES: CC(C)(C)NC(=O)[C@@H]1CN(Cc2cccnc2)CCN1C[C@@H](O)C[C@@H](Cc1ccccc1)C(=O)N[C@H]1c2ccccc2C[C@H]1O [indinavir]
Killing activity against P. knowlesi [5]: exhibited killing activity

— PMC4079689, “HIV Treatments Reduce Malaria Liver Stage Burden in a Non-Human Primate Model of Malaria Infection at Clinically Relevant Concentrations In Vivo” (PLoS ONE, 2014)
